Test results from patent publication US20220192978A1, “Pharmaceutical Inhalation Aerosol and Preparation Method Therefor” (CF PharmTech, Inc., priority 2019, published 2022).
Where a name gives a salt, the structure may show the parent alone.

Tests used:
[1] = Anderson cascade impactor (ACI) test of the inhalation aerosol (deposition rate per plate, FPF); type: physicochemical; conditions: for Fine Particle Fraction (FPF) (lung): in single or compound preparations (MDI); for FPF of glycopyrronium bromide (%) / FPF of indacaterol maleate (%): inhalation aerosol prepared directly from micronized powder(s), no co-micronization; for Fine Particle Fraction (in words): prepared as a suspension-type inhalation aerosol
Description: Prescription amounts of glycopyrronium bromide and indacaterol maleate were added to an aluminum can, valve-sealed, and filled with propellant, HFA-134a. After being inverted for 2 days, it was tested according to 0951, volume IV general rules of the Pharmacopoeia of the People's Republic of China 2015 Edition. The sum of the deposition from the stage plate 3 to the filter membrane is the Fine Particle Dose (FPD). The FPD (less than 5 μm) divided by the total amount collected by the Anderson cascade impactor (Total Dose, TD) is the Fine Particle Fraction (FPF).
Micronized powders were precisely weighed and placed in a 14 mL fluorocarbon polymerization (FCP)-coated aluminum can, valve-sealed, filled, ultrasonicated for 10 minutes, and then kept for 2 days for Anderson cascade impactor testing. It was tested according to 0951 device 2, volume IV general rules of the Pharmacopoeia of the People's Republic of China 2015 Edition. The relative humidity of the test environment should be 45% to 55%. The flow rate was adjusted to 28.3±1.5 liters per minute. Take 1 bottle of this product, shake it sufficiently, and discard 4 sprays. Wipe the mouthpiece with ethanol, dry it sufficiently, turn on the vacuum pump, shake for 5 seconds (note that shake for 5 seconds before each spray and the interval between sprays is 30 seconds), insert the product into the adapter, and spray once immediately. After removing the aluminum can and the driver, shake for 5 seconds, reinsert into the adapter, and immediately spray the second time. Repeat this process until the completion of 10 sprays. After the last spray, wait 1 minute, then remove the aluminum can and driver, turn off the vacuum pump, and remove the device. The various plates of the Anderson impactor were washed with a specific ratio of methanol aqueous solution, and the content of the drugs deposited on each plate was determined by HPLC.

[2] = particle size test of micronized powder (D10, D50, D90, SPAN); type: physicochemical; conditions: fine powder used for direct mixing
Excerpt: In the invention, D90 is described as the volume of particles smaller than a certain particle size (x) accounts for 90% of the total volume of the particles, D50 is described as the volume of particles smaller than a certain particle size (x) accounts for 50% of the total volume of the particles, and D10 is described as the volume of particles smaller than a certain particle size (x) accounts for 10% of the total volume of the particles.
The pressure of the jet mill was decreased and the above steps were repeated, in order to investigate the effect of pressure (10 bar, 8 bar, 4 bar, 3 bar, 2 bar) on the particle size of the glycopyrronium bromide/indacaterol maleate mixture, the Fine Particle Fraction of glycopyrronium bromide and the degree of co-deposition of the two active ingredients.

| Fine Particle Fraction (FPF) (lung) [1] | FPF of glycopyrronium bromide (%) [1] [%] | FPF of glycopyrronium bromide (%) ([1]; listed as glycopyrronium bromide fine powder) | Fine Particle Fraction (in words) [1] | D90 [2] [μm] | FPF of indacaterol maleate (%) [1] [%] | FPF of indacaterol maleate (%) ([1]; listed as indacaterol fine powder) | SMILES |
| --- | --- | --- | --- | --- | --- | --- | --- |
| 15-20% | 25.68 | 24 | low | 3.43 | – | – | C[N+]1(C)CCC(OC(=O)C(O)(c2ccccc2)C2CCCC2)C1 (stereo not shown) [glycopyrronium bromide] |
| 40-50% | – | – | high | 3.84 | 45.66 | 45 | CCc1cc2c(cc1CC)CC(NC[C@H](O)c1ccc(O)c3[nH]c(=O)ccc13)C2 [indacaterol maleate] |
